Data published in patent US10106577B2, “Agonists of neurotrophin receptors and their use as medicaments” (BIONURE FARMA, S.L., priority 2010, dated 2018).
Entries after “also recorded” stand apart in the source; their conditions may differ.

What was measured:
RN22 cells = assay: Survival assay in RN22 cells under CuSO4 oxidative stress (MTT); type: cell-based, rat; details: for cell viability of RN22 (in words): 1-10-50 ng/ml and 1-10 μg/ml, CuSO4 stress; for best working concentration for RN22 cell viability: tested 1-10-50 ng/ml and 1-10 μg/ml; for viability at 0.05 µg/mL: 50 ng/ml
Protocol: The rat schwannome cell line RN22 was cultured in Dulbecco's modified Eagle's medium (DMEM) with 10% FBS and 1% penicillin/streptomycin. The cell culture was maintained in 5% CO2 at 37° C.
RN22 were plated into 24-wells plates at the concentration of 30.000 cells/well in medium without serum. After 24 h, the test compounds G79, G80, and G81 were added at different concentrations (1-10-50 ng/ml and 1-10 μg/ml) and NGF was used as positive control of survival. The cells were so incubated for 2 hrs. Oxidative stress was induced with copper sulphate (CuSO4) at the final concentration of 150 μg/ml. After over-night incubation cell viability was determined by reading the absorbance after adding MTT (Sigma Aldrich).

PC12 cells [1] = assay: Secretagogue activity assay (PC12 differentiation with antibody anti-NGF); type: cell-based
Protocol: To assess if the tested compounds, G79, G80, and G81, act as secretagogues, inducing neurotrophic activity through the synthesis of NGF, PC12 cells were plated into collagen-coated 24-wells plates with only 2.5% FBS and after 72 hrs the cells were treated with the tested compounds (each one at 100 ng/ml) together with antibody anti-NGF (1 μg/ml, AbCam). After three days of treatment, the differentiation was evaluated. The cell count was done in three randomly selected fields with 100 cells.

PC12 cells [2] = assay: Synergistic activity assay (PC12 differentiation in combination with NGF); type: cell-based; details: 100 ng/ml in combination with NGF 100 ng/ml
Protocol: To evaluate if the small molecules G79, G80, and G81 interfere with the maximal activity of NGF or lead to additive effects, PC12 cells were plated into collagen-coated 24-wells plates with 2.5% FBS and treated after 72 h with the small chemicals (each one at 100 ng/ml) in combination with NGF at the concentration of 100 ng/ml. In the same experiment PC12 cells were treated with the small molecules or NGF alone, as controls. The number of differentiated cells was evaluated after three days of treatment. The cell count was done in three randomly selected fields with 100 cells.

PC12 cells [3] = assay: Receptor activation assay (PC12 differentiation with anti-TrkA antibody); type: cell-based
Protocol: The hypothesis that G79, G80, and G81 can act through the binding to the extracellular portion of TrkA (binding site) and activate the tyrosine kinase receptor was tested by treating the PC12 cells with the small chemicals in combination with the antibody anti-TrkA or the K252a, a tyrosine kinase inhibitor. For this purpose PC12 cells were plated into collagen-coated 24-wells plates with 2.5% FBS and after 72 hrs were incubated with the small molecules alone or in combination with anti-TrkA antibody (AbCam, 1:2000) or K252a. NGF (100 ng/ml) was used as control and added alone or in combination with anti-TrkA antibody or K252a. The number of differentiated cells was evaluated after three days of treatment. The cell count was done in three randomly selected fields with 100 cells.

PC12 cells [4] = assay: Signalling inhibition assays (PC12 differentiation with LY294002 or PD98059); type: cell-based
Protocol: To evaluate if the transduction pathway induced by G79, G80, and G81 involves AKT and ERK activation, PC12 cell were treated with the test compounds in the presence of LY294002, an inhibitor of PI3K (an upstream activator of AKT) and PD98059, an inhibitor of MAPK kinase (an upstream activator of ERK). For this purpose, PC12 cells were plated into collagen-coated 24-wells plates with 2.5% FBS and after 72 hrs the cells were treated with the small molecules in combination with LY294002 (Sigma Aldrich, 10 μM) or PD98059 (Sigma Aldrich, 50 μM). NGF (100 ng/ml) was used as control and added alone or in combination with the inhibitors.

SH-SY5Y cells [5] = assay: Parkinson's disease in vitro model (MPTP stress, MTT); type: cell-based, human; details: MPTP 100 μM, 24 hrs; pre-treated 3 hours; BDNF 20 ng/ml
Protocol: The human neuroblastoma cell line SH-SY5Y was maintained in culture with 50% Ham's F12 medium and 50% EMEM medium, supplemented with 10% FBS, […] L-glutamine and 1% penicillin/streptomycin. The cell culture was maintained in a humidified atmosphere of 95% air and CO2 at 37° C.
The SH-SY5Y cells after differentiation to neuronal phenotype with retinoic acid, were pre-treated for 3 hours with the test compounds at different concentrations (20 ng/ml, 100 ng/ml, 2 μg/ml, 20 μg/ml and 50 μg/ml) or BDNF (20 ng/ml) as a positive control. Then 1-methyl-4-phenyl-1,2,3,6-tetrahydropyridine (MPTP) (100 μM) was added and incubated for 24 hrs. The number of surviving cells was determined the day after by 3-(4,5-dimethylthiazol-2-yl)-2,5-diphenyltetrazolium bromide (MTT) assay.

SH-SY5Y cells [6] = assay: cells; type: cell-based, human; details: for protective effect against H2O2 oxidative stress (in words): H2O2 100 μM, 20 ng/ml to 50 μg/ml
Protocol: The cells were pre-treated for 3 hours with the test compounds at different concentrations (20 ng/ml, 100 ng/ml, 2 μg/ml, 20 μg/ml and 50 μg/ml) or BDNF (20 ng/ml) as a positive control. Then H2O2 (100 μM) was added and incubated for 24 hrs. The number of surviving cells was determined by MTT assay. […] In FIG. 5B, BDNF cell viability has been considered as the 100%. The H2O2 stress induced a decrease in the percentage of cell viability (no stress Ctr vs H2O2 stress=100±2% vs 95.9±0.5%). G79, compared to G80 and G81, is the one that exerted better protection, at the concentration of 20 ng/ml (BDNF vs G79=100±2.6 vs 107.4±5.8).

in vitro = details: rat (astrocytes)
[7] = 100 ng/ml together with antibody anti-NGF (1 μg/ml)
[8] = in combination with anti-TrkA antibody (1:2000)
[9] = plus LY294002 (10 μM), inhibitor of PI3K
[10] = plus PD98059 (50 μM), inhibitor of MAPK kinase
[11] = Rattus norvegicus, RN 22, CuSO4 150 μg/ml, read-out: cell viability, as % relative to the no-stress control

Row | Compound | cell viability of RN22 (in words) (RN22 cells) | viability at 0.01 µg/mL (RN22 cells; Rattus norvegicus, RN 22, 10 ng/ml, CuSO4 150 μg/ml, read-out: cell viability, as % relative to the no-stress control) [%] | best working concentration for RN22 cell viability (RN22 cells) [ng/mL] | number of differentiated cells for each field (PC12 cells [1]; [7]) | number of differentiated cells for each field (PC12 cells [1]; 100 ng/ml, treatment alone) | number of differentiated cells (PC12 cells [2]) | number of differentiated cells (PC12 cells [3]; [8]) | number of differentiated cells (PC12 cells [3]; treatment alone) | number of differentiated cells (PC12 cells [4]; [9]) | number of differentiated cells (PC12 cells [4]; [10]) | number of differentiated cells (PC12 cells [4]; treatment alone) | protection of neuronal cells against MPTP (surviving cells, MTT) (SH-SY5Y cells [5]) | protective effect against H2O2 oxidative stress (in words) (SH-SY5Y cells [6]) | viability at 0.02 µg/mL (SH-SY5Y cells [6]; Homo sapiens, SH-SY5Y, 24 h, read-out: cell viability, BDNF cell viability considered as the 100%) [%] | Papp (in vitro) [nm/s] | viability at 0.05 µg/mL (RN22 cells; [11]) [%]
1 | CC(C)CN(CC(=O)N(CCCN1CCCC1=O)CC(N)=O)C(=O)CNCCc1ccccc1F [Compound G79, [N-(2-(2′-Fluorophenyl)ethyl)glycyl]-[N-(2-methylpropyl)glycyl]-N-[3-(2′-oxopyrrolidinyl)propyl]glycinamide] | increased cell viability at all tested concentrations | 98.1 | 10 | 18.8±4.9 | 11.5±2.8 | 11.3±2.6 | 19.6±8.1 | 11.5±2.8 | 5.28±2.54 | 3.1±1.06 | 11.5±2.8 | Prevent Neuronal Death; also recorded: significant protection of neuronal cells | protective effect | 107 ± 5.8 | 41 | 
2 | CC(C)CN(CC(=O)N(CCc1ccc(S(N)(=O)=O)cc1)CC(N)=O)C(=O)CNCCN1CCCC1 [Compound G81, [N-(2-(1-Pyrrolidinyl)ethyl)glycyl]-[N-(2-methylpropyl)glycyl]-N-[2-(4′-sulfamoylphenyl)ethyl]glycinamide] | increased cell viability at all tested concentrations |  | 50 | 15.5±4.1 | 14.1±3.3 | 13.3±3.8 | 16.5±5.9 | 14.1±3.3 | 6.6±4.02 | 1.6±1.1 | 14.1±3.3 | Prevent Neuronal Death | protective effect |  | 21 | 102
3 | CC(C)CN(CC(=O)N(CCc1ccc(S(N)(=O)=O)cc1)CC(N)=O)C(=O)CNCCc1ccccc1F [Compound G80, [N-(2-(2′-Fluorophenyl)ethyl)glycyl]-[N-(2-methylpropyl)glycyl]-N-[2-(4′-sulfamoylphenyl)ethyl]glycinamide] | increased cell viability at all tested concentrations |  | 50 | 14.1±1.8 | 15.1±6.3 | 13±5.9 | 14.6±4.1 | 15.1±6.3 | 8.5±2.6 | 4±2.3 | 15.1±6.3 | Prevent Neuronal Death | protective effect |  | 28 | 99.9
